From ChEMBL document CHEMBL4321837, “Discovery of Potent and Orally Effective Dual Janus Kinase 2/FLT3 Inhibitors for the Treatment of Acute Myelogenous Leukemia and Myeloproliferative Neoplasms” (J Med Chem, 2019)
Calls of active or inactive are those of the source. No cut-off for these calls is given here.

Legend:
MV4-11 [1] = experiment: Induction of cell cycle arrest in human MV4-11 cells assessed as accumulation at G0/G1 phase at 0.1 uM after 24 hrs by propidium iodide staining based flow cytometry analysis (reference value: 54.49%); format: functional
MV4-11 [2] = experiment: Induction of apoptosis in human MV4-11 cells assessed as viable cells at 0.05 uM after 24 hrs by Annexin V FITC/PI staining based flow cytometry analysis (reference value: 96.3%); format: functional; conditions: MV4-11, 24 h, read-out: Activity
[3] = target: Tyrosine-protein kinase JAK1 (Homo sapiens, UniProt P23458); experiment: Inhibition of human JAK1 (866 to end residues) assessed as residual activity at 100 nM using GEEPLYWSFPAKK as substrate after 40 mins in presence of [gamma33P]-ATP by scintillation counting based radiometric assay relative to control
Sequence of Tyrosine-protein kinase JAK1 (P23458 whole entry): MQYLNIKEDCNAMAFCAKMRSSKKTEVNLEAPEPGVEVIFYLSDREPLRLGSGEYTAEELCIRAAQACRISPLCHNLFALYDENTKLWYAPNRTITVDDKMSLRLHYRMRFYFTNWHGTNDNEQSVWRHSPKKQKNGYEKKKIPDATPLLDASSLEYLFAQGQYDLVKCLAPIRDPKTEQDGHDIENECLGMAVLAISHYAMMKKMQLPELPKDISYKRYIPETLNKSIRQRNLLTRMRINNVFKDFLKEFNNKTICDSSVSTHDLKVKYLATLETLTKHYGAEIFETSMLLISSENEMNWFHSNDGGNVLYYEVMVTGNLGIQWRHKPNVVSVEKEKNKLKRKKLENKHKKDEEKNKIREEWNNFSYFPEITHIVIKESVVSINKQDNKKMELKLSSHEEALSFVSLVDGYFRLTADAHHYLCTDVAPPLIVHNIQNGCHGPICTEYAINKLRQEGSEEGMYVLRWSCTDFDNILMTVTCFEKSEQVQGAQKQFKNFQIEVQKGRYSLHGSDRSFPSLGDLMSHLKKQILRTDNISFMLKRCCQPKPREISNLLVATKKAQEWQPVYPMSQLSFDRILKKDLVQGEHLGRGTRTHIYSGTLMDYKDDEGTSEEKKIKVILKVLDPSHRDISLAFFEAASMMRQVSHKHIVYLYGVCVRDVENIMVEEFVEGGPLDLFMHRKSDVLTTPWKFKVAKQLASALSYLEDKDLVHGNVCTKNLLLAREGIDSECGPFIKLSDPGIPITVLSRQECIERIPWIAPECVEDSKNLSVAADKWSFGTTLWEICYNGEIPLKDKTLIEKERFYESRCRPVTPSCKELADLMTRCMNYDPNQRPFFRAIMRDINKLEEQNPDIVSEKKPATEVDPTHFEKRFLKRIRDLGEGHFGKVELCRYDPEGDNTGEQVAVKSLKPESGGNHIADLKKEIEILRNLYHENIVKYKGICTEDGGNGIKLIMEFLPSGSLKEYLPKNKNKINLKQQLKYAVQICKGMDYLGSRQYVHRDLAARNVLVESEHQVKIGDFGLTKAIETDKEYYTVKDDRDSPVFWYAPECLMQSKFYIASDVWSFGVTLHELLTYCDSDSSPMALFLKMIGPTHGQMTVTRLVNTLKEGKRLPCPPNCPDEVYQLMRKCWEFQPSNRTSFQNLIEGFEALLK

HCT-116 = experiment: Antiproliferative activity against human HCT116 cells assessed as reduction in cell growth after 72 hrs by MTT assay; format: functional, cell-based
MV4-11 [4] = experiment: Induction of apoptosis in human MV4-11 cells assessed as early apoptotic cells at 0.05 uM after 24 hrs by Annexin V FITC/PI staining based flow cytometry analysis (reference value: 2.14%); format: functional
SET-2 = experiment: Antiproliferative activity against human SET2 cells overexpressing JAK2 […] mutant assessed as reduction in cell growth after 72 hrs by MTT assay; format: functional, cell-based; conditions: SET-2, 72 h
[5] = Cytotoxicity against rat H9c2(2-1) cells assessed as cell viability after 72 hrs by MTT assay; format: cell-based
MV4-11 [6] = experiment: Induction of cell cycle arrest in human MV4-11 cells assessed as accumulation at G0/G1 phase at 0.05 uM after 24 hrs by propidium iodide staining based flow cytometry analysis (reference value: 54.49%); format: functional
JAK3/JAK1 = JAK3/JAK1 (Homo sapiens, UniProt P23458+P52333); experiment: Inhibition of JAK1/JAK3 in human PBMC cells assessed as reduction in IL-2-induced STAT5 phosphorylation by flow cytometry; format: cell-based
Sequence of JAK3/JAK1 (P52333 whole entry): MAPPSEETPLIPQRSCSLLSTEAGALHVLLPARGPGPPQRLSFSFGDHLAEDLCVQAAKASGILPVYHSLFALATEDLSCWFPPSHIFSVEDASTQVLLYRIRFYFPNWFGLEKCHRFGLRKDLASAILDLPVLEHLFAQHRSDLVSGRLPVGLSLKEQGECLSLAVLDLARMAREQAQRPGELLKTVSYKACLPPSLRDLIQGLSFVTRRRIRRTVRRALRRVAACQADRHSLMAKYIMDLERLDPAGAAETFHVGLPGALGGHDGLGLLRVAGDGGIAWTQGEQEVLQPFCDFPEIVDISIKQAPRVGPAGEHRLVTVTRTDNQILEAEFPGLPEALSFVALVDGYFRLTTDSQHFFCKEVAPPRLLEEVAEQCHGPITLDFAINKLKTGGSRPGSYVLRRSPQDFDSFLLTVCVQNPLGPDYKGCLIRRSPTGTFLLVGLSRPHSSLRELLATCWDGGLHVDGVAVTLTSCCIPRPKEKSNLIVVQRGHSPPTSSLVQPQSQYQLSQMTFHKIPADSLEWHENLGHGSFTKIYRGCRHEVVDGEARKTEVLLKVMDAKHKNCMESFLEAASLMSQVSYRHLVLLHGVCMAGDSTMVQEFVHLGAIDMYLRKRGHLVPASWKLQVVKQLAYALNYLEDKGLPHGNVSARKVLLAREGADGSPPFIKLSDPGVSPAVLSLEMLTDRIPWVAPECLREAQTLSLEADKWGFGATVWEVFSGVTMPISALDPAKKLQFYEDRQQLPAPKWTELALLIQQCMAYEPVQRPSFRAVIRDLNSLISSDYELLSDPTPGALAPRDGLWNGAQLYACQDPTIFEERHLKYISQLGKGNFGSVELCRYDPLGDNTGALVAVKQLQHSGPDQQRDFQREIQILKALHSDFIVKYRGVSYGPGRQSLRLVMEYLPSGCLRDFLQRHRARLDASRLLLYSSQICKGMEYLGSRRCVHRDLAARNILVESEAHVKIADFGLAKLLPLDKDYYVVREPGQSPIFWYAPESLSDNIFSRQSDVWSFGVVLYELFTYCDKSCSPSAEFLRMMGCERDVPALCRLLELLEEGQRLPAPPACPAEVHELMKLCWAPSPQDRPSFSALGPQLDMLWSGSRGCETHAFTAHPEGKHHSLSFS
Sequence of JAK3/JAK1 (P23458 whole entry): as the sequence (P23458 whole entry) above

[7] = Toxicity in NOD/SCID mouse xenografted with human SET2 cells overexpressing JAK2 V617F mutant assessed as animal survival at 30 to 60 mg/kg, po qd for 18 days; format: organism-based; conditions: in vivo
MOLM-13 = experiment: Antiproliferative activity against FLT3-ITD-positive human MOLM13 cells assessed as reduction in cell growth after 72 hrs by MTT assay; format: functional, cell-based; conditions: MOLM-13, 72 h
MV4-11 [8] = experiment: Antitumor activity against FLT3-ITD-positive human MV4-11 cells xenografted in NOD/SCID mouse assessed as tumor growth inhibition at 30 mg/kg, po qd for 14 days measured every 2 days for 14 days by caliper method relative to control; format: functional; conditions: MV4-11, po, read-out: TGI
MV4-11 [9] = experiment: Induction of apoptosis in human MV4-11 cells assessed as necrotic cells at 0.05 uM after 24 hrs by Annexin V FITC/PI staining based flow cytometry analysis (reference value: 0.18%); format: functional
MV4-11 [10] = experiment: Induction of apoptosis in human MV4-11 cells assessed as necrotic cells at 0.2 uM after 24 hrs by Annexin V FITC/PI staining based flow cytometry analysis (reference value: 0.18%); format: functional
[11] = target: Voltage-gated inwardly rectifying potassium channel KCNH2 (Homo sapiens, UniProt Q12809); experiment: Inhibition of human ERG
Homo sapiens [12] = species on record: Homo sapiens; experiment: Inhibition of JAK2 V617F mutant/FLT3 in human SET2 cells assessed as reduction in STAT5 phosphorylation at 0.2 uM after 2 hrs by Western blot analysis; format: cell-based
Homo sapiens [13] = species on record: Homo sapiens; experiment: Inhibition of JAK2 V617F mutant/FLT3 in human SET2 cells assessed as reduction in JAK2 phosphorylation at 0.2 uM after 2 hrs by Western blot analysis; format: cell-based
MV4-11 [14] = experiment: Inhibition of JAK2/FLT3 ITD mutant in human MV4-11 cells assessed as reduction in STAT5 phosphorylation at 0.2 uM after 2 hrs by Western blot analysis; format: cell-based
MDA-MB-231 = experiment: Antiproliferative activity against human MDA-MB-231 cells assessed as reduction in cell growth after 72 hrs by MTT assay; format: functional, cell-based
MV4-11 [15] = experiment: Induction of apoptosis in human MV4-11 cells assessed as late apoptotic cells at 0.2 uM after 24 hrs by Annexin V FITC/PI staining based flow cytometry analysis (reference value: 1.38%); format: functional
Cytochrome P450 3A4 = Cytochrome P450 3A4 (Homo sapiens, UniProt P08684); experiment: Inhibition of CYP3A4 (unknown origin); format: ADME
Sequence of Cytochrome P450 3A4 (P08684 whole entry): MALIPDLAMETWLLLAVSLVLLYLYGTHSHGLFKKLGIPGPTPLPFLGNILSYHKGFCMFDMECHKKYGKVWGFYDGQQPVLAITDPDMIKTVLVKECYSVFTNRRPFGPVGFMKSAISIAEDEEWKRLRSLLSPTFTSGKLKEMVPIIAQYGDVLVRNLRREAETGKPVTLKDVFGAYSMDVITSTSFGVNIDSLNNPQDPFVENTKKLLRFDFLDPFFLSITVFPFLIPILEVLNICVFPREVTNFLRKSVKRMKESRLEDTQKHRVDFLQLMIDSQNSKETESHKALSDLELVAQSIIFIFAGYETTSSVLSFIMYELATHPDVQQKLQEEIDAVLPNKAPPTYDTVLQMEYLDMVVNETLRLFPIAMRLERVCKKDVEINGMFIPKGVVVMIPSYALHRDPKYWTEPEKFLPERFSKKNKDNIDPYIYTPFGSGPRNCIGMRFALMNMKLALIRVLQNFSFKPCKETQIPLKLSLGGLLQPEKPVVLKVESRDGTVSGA

[16] = Intrinsic clearance in dog liver microsomes; format: ADME, Canis lupus familiaris, Microsome
Cytochrome P450 2C19 = Cytochrome P450 2C19 (Homo sapiens, UniProt P33261); experiment: Inhibition of CYP2C19 (unknown origin); format: ADME
Sequence of Cytochrome P450 2C19 (P33261 whole entry): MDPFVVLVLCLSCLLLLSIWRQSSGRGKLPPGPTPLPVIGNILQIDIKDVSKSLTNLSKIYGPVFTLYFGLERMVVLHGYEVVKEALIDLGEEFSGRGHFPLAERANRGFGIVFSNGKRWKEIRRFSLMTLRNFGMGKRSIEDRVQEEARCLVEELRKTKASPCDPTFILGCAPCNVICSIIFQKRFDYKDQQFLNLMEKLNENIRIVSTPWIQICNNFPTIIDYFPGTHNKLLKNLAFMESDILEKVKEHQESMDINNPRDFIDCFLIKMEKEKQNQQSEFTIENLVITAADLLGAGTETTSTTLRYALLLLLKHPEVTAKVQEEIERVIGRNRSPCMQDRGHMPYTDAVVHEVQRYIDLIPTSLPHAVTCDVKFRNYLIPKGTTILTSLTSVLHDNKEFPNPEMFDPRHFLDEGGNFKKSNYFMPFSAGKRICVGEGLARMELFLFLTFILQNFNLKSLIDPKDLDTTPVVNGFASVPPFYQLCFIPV

[17] = Half life in dog liver microsomes; format: ADME, Canis lupus familiaris, Microsome
[18] = target: Tyrosine-protein kinase Lyn (Homo sapiens, UniProt P07948); experiment: Inhibition of recombinant full length human LYN using poly(Glu, Tyr) 4:1 as substrate incubated for 40 mins in presence of [gamma33P]-ATP by scintillation counting based radiometry assay
Sequence of Tyrosine-protein kinase Lyn (P07948 whole entry): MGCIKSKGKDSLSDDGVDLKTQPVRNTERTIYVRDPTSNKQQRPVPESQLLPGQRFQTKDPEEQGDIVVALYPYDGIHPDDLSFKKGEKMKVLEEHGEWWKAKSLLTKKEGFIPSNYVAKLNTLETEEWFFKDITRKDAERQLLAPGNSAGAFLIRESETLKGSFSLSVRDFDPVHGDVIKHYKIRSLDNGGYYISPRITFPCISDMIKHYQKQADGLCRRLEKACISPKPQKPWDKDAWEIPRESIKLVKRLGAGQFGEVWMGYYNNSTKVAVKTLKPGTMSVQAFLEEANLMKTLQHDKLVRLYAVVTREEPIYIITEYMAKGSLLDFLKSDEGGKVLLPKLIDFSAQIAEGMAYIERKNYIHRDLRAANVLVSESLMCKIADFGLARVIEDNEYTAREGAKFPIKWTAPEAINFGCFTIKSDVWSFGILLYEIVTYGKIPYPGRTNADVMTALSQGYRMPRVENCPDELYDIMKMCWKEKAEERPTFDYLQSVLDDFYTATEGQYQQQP

[19] = Terminal elimination half life in Sprague-Dawley rat at 5 mg/kg, po measured up to 24 hrs by LC/MS/MS analysis; format: ADME, organism-based; conditions: in vivo, 24 h
[20] = Anti-myelofibrosis activity against mouse BAF3(transformed) cells harboring with JAK2 V617F mutant allografted in NOD/SCID mouse assessed as reduction in spleen weight at 60 mg/kg, po qd for 20 days measured on day 25 relative to control; format: functional
[21] = Intrinsic clearance in monkey liver microsomes; format: ADME, Macaca mulatta, Microsome; conditions: rhesus monkey
Cytochrome P450 1A2 = Cytochrome P450 1A2 (Homo sapiens, UniProt P05177); experiment: Inhibition of CYP1A2 (unknown origin); format: ADME
Sequence of Cytochrome P450 1A2 (P05177 whole entry): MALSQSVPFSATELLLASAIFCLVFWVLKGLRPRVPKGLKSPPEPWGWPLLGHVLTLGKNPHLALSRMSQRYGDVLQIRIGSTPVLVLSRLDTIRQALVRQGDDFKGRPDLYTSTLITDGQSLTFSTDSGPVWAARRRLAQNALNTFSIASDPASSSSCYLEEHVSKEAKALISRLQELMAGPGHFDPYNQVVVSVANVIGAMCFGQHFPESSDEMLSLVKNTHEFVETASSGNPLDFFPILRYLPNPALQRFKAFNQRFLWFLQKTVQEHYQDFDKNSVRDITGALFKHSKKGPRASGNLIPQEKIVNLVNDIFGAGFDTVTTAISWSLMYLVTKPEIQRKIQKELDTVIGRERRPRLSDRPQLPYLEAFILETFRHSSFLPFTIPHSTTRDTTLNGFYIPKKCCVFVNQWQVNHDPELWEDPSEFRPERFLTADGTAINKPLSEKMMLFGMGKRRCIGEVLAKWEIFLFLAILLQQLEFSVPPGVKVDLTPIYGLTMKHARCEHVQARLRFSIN

[22] = Intrinsic clearance in rat liver microsomes; format: ADME, Microsome
[23] = Half life in human liver microsomes; format: ADME, Microsome
[24] = Oral bioavailability in Sprague-Dawley rat at 5 mg/kg measured up to 24 hrs by LC/MS/MS analysis; format: ADME, organism-based; conditions: in vivo
MV4-11 [25] = experiment: Inhibition of JAK2/FLT3 ITD mutant in human MV4-11 cells assessed as reduction in JAK2 phosphorylation at 0.2 uM after 2 hrs by Western blot analysis; format: cell-based
MV4-11 [26] = experiment: Antiproliferative activity against FLT3-ITD-positive human MV4-11 cells assessed as reduction in cell growth after 72 hrs by MTT assay; format: functional, cell-based; conditions: MV4-11, 72 h
MV4-11 [27] = experiment: Antitumor activity against FLT3-ITD positive human MV4-11 cells xenografted in NOD/SCID mouse assessed as tumor growth inhibition at 60 mg/kg, po qd for 14 days measured every 2 days for 14 days by caliper method relative to control; format: functional; conditions: MV4-11, po, read-out: TGI
NCI-H460 = experiment: Antiproliferative activity against human NCI-H460 cells assessed as reduction in cell growth after 72 hrs by MTT assay; format: functional, cell-based
MV4-11 [28] = experiment: Induction of cell cycle arrest in human MV4-11 cells assessed as accumulation at G0/G1 phase at 0.01 uM after 24 hrs by propidium iodide staining based flow cytometry analysis (reference value: 54.49%); format: functional
L02 = experiment: Cytotoxicity against human LO2 cells assessed as cell viability after 72 hrs by MTT assay; format: cell-based; conditions: l02, 72 h

**Q.** With `Cc1cnc(Nc2ccc(N3CCC(N(C)CCO)CC3)c(F)c2)nc1-c1cnn(C(C)C)c1` as the molecule, how does the Activity (MV4-11 [1]) read?
**A.** 84.71%

**Q.** What about the viability at 0.05 µM (MV4-11 [2]) of the same molecule?
**A.** 89.6%

**Q.** And the Activity [3]?
**A.** 25%

**Q.** And the Activity (HCT-116)?
**A.** Active

**Q.** And the Activity (MV4-11 [4])?
**A.** 5.53%

**Q.** And the IC50 (SET-2)?
**A.** 0.27 µM

**Q.** And the Activity [5]?
**A.** Non-Toxic

**Q.** And the Activity (MV4-11 [6])?
**A.** 81.64%

**Q.** What about the IC50 (JAK3/JAK1) of the same molecule?
**A.** 0.112 µM

**Q.** What about the survival at 432 h [7] of the same molecule?
**A.** 100%

**Q.** What about the IC50 (MOLM-13) of the same molecule?
**A.** 0.072 µM

**Q.** What about the inhibition in vivo at 30 mg/kg (MV4-11 [8]) of the same molecule?
**A.** 58%

**Q.** What about the Activity (MV4-11 [9]) of the same molecule?
**A.** 0.29%

**Q.** What about the Activity (MV4-11 [10]) of the same molecule?
**A.** 0.75%

**Q.** What about the IC50 [11] of the same molecule?
**A.** 28 µM

**Q.** And the inhibition (Homo sapiens [12])?
**A.** Active

**Q.** What about the inhibition (Homo sapiens [13]) of the same molecule?
**A.** Active

**Q.** What about the inhibition (MV4-11 [14]) of the same molecule?
**A.** Active

**Q.** And the Activity (MDA-MB-231)?
**A.** Active

**Q.** What about the Activity (MV4-11 [15]) of the same molecule?
**A.** 9.88%

**Q.** And the IC50 (Cytochrome P450 3A4)?
**A.** > 100 µM

**Q.** And the CLH [16]?
**A.** 3.7 µL/min/mg

**Q.** What about the IC50 (Cytochrome P450 2C19) of the same molecule?
**A.** 74.7 µM

**Q.** What about the half-life [17] of the same molecule?
**A.** 3.12 h

**Q.** And the IC50 [18]?
**A.** 0.017 µM

**Q.** And the “beta t1/2” value [19]?
**A.** 4.1 h

**Q.** And the inhibition in vivo at 60 mg/kg [20]?
**A.** 59.5%

**Q.** What about the CLH [21] of the same molecule?
**A.** 0.5 µL/min/mg

**Q.** And the IC50 (Cytochrome P450 1A2)?
**A.** 64.4 µM

**Q.** What about the CLH [22] of the same molecule?
**A.** 0.9 µL/min/mg

**Q.** What about the half-life [23] of the same molecule?
**A.** 4.81 h

**Q.** What about the bioavailability [24] of the same molecule?
**A.** 58%

**Q.** And the inhibition (MV4-11 [25])?
**A.** Active

**Q.** What about the IC50 (MV4-11 [26]) of the same molecule?
**A.** 0.0053 µM

**Q.** What about the inhibition in vivo at 60 mg/kg (MV4-11 [27]) of the same molecule?
**A.** 93%

**Q.** What about the Activity (NCI-H460) of the same molecule?
**A.** Active

**Q.** What about the Activity (MV4-11 [28]) of the same molecule?
**A.** 58.55%

**Q.** And the Activity (L02)?
**A.** Non-Toxic
